Test results as given in US7923440B2, “Method of treating or preventing immune mediated disorders and pharmaceutical formulation for use therein” (Pantarhei Bioscience B.V., priority 2002, dated 2011).

What was measured:
[1] = tested on: SJL/J mice with experimental autoimmune encephalomyelitis (EAE); experiment: PLP139-151 induced EAE in SJL/J mice, oral treatment; type: in vivo; details: for EAE incidence / mean cumulative EAE score versus vehicle / mean cumulative EAE score: day 0-42; for mean cumulative EAE score: vehicle 17.4±5.0; for clinical EAE score in second phase (relapse): day 26 until day 42; for mean maximal clinical (disability) score: vehicle 1.8±0.3; for mean day of onset of EAE: vehicle day 12
[2] = intravenous, two adult women, Fishman et al. 1970; cited from earlier work
uterus = details: continuous administration from a subcutaneous depot, Martucci et al. 1977; cited from earlier work
[3] = target: T1, rat uterine nuclear estrogen receptor (Rattus norvegicus, UniProt P06211); details: Martucci et al. 1976; cited from earlier work
T1 construct: rat uterine nuclear estrogen receptor; host or cells: rat uterus, nuclear fraction
T1 sequence (P06211 1-600): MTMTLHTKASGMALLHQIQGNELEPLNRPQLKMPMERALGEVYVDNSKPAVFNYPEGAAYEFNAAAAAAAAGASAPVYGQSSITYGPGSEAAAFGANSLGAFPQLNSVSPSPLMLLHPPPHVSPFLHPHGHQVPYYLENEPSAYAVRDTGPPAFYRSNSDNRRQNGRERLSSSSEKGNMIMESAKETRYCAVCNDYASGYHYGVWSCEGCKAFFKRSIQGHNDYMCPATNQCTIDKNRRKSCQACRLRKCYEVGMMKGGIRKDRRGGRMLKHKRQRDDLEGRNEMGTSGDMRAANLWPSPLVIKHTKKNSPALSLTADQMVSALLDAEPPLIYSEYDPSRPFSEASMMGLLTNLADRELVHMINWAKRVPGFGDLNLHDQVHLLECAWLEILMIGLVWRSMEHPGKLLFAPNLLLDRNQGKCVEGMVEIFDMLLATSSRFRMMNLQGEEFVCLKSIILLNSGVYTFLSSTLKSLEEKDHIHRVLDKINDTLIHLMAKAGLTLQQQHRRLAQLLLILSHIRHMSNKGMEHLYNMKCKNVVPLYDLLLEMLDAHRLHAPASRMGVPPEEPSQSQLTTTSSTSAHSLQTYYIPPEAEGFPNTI

Structure (SMILES): C[C@]12CC[C@@H]3c4ccc(O)cc4CC[C@H]3[C@@H]1[C@@H](O)[C@@H](O)[C@@H]2O [E4, 1,3,5 (10)-estratrien-3,15α,16α,17β-tetrol]
- disease onset of EAE versus vehicle ([1]; oral 0.1 mg/kg/day): trend of delayed disease onset as compared to vehicle-treated mice, but this was not statistically significant
- mean maximal clinical score versus vehicle ([1]; oral 0.1 mg/kg/day): did not show statistically significant differences
- EAE incidence ([1]; oral 0.1 mg/kg/day): 70%
- mean cumulative EAE score versus vehicle ([1]; oral 0.1 mg/kg/day): did not show statistically significant differences
- disease onset of EAE versus vehicle ([1]; oral 0.3 mg/kg/day): trend of delayed disease onset as compared to vehicle-treated mice, but this was not statistically significant
- mean maximal clinical score versus vehicle ([1]; oral 0.3 mg/kg/day): did not show statistically significant differences
- EAE incidence ([1]; oral 0.3 mg/kg/day): 80%
- mean cumulative EAE score versus vehicle ([1]; oral 0.3 mg/kg/day): did not show statistically significant differences
- EAE incidence ([1]; oral 1 mg/kg/day): 33%
- mean cumulative EAE score ([1]; oral 1 mg/kg/day): 3.9±1.8
- clinical EAE score in second phase (relapse) ([1]; oral 1 mg/kg/day): little evidence of disease activity
- mean maximal clinical (disability) score ([1]; oral 1 mg/kg/day): 0.9±0.3
- mean day of onset of EAE ([1]; oral 1 mg/kg/day): 14.7 days
- EAE incidence ([1]; oral 3 mg/kg/day): 40%
- mean cumulative EAE score ([1]; oral 3 mg/kg/day): 5.8±2.9
- clinical EAE score in second phase (relapse) ([1]; oral 3 mg/kg/day): little evidence of disease activity
- mean maximal clinical (disability) score ([1]; oral 3 mg/kg/day): 0.8±0.3
- mean day of onset of EAE ([1]; oral 3 mg/kg/day): 15.7 days
- side-effects (clinical symptoms other than EAE) ([1]; oral once daily 0.1-3 mg/kg, 42 days): did not induce any significant side-effects
- excretion [2]: rapidly and completely excreted in urine as the glucosiduronate
- metabolism [2]: virtually no metabolism except for conjugation took place
- uterotrophic activity (uterus): very weak uterotrophic activity
- relative binding affinity, of 17β-estradiol (100%) [3]: 0.3%
